Source: US20100286073A1, “COMPOUNDS AND METHODS FOR PHARMACEUTICAL USE” (priority 2007, published 2010)
Entries after “also recorded” stand apart in the source; their conditions may differ.

Experiments:
[1] = tested on: human subjects diagnosed with fibromyalgia syndrome; assay: Patient history of prior treatment of the fibromyalgia subjects (Examples 1-3); settings: for pain relief by prior OTC analgesics: codeine at low dose; for side effects of prior prescription analgesics / pain relief by prior prescription analgesics: codeine at high dose; for pain relief by prior prescription analgesics: at best
Source text: (§1) Patient History of Prior Treatment: A patient history was taken. Prior treatments targeting pain relief were as follows.
Prior treatments targeting other symptoms included the following. The subject had taken tegaserod for irritable bowel syndrome. Additional prior therapies included sertraline for depression, and zolpidem for insomnia. The subject has also taken proclorperazine for dizziness.
Prior treatments targeting other symptoms included the following. The subject had taken tegaserod for irritable bowel syndrome. Additional prior therapies included sertraline for depression, and zolpidem for insomnia.
as §1
Prior treatments targeting other symptoms included the following. The subject had taken tegaserod for irritable bowel syndrome. Additional prior therapies included zolpidem, midazolam, zopiclone, and chlorpheniramine for insomnia.

[2] = tested on: human subjects diagnosed with fibromyalgia syndrome; assay: Treatment of human subjects diagnosed with fibromyalgia with trimetazidine (Examples 1-4, clinical case reports); format: in vivo
Procedure: A person presented with long-standing complaints (15 years) of widespread pain—headaches, upper and lower back pain, neck pain, elbow and knee pain bilaterally, calf pain bilaterally and jaw pain. General non-specific symptoms were fatigue, symptoms of irritable bowel syndrome (constipation-type), insomnia, cognitive and memory impairment, morning stiffness, dizziness, irritability and depression.
Treatment Regime: The subject was administered trimetazidine (modified release formulation, Vastarel® MR), 35 mg orally, twice daily, originally for treatment of their cardiac condition.
Treatment Regime: The subject was administered trimetazidine (modified release formulation, Vastarel® MR), 35 mg orally, twice daily.
The following is a synopsis of the clinical response of each of eight (8) patients diagnosed with FMS, each of whom received treatment with trimetazidine MR (Vastarel® MR), 35 mg orally, twice daily, for a period of at least four (4) weeks.

[3] = target: long-chain isoform of 3-ketoacyl coenzyme A thiolase (3KCT) (Homo sapiens, UniProt P55084); settings: thereby reducing fatty acid oxidation; Kantor et al., Circ Res 2000; cited from earlier work
Sequence of long-chain isoform of 3-ketoacyl coenzyme A thiolase (3KCT) (P55084 34-474): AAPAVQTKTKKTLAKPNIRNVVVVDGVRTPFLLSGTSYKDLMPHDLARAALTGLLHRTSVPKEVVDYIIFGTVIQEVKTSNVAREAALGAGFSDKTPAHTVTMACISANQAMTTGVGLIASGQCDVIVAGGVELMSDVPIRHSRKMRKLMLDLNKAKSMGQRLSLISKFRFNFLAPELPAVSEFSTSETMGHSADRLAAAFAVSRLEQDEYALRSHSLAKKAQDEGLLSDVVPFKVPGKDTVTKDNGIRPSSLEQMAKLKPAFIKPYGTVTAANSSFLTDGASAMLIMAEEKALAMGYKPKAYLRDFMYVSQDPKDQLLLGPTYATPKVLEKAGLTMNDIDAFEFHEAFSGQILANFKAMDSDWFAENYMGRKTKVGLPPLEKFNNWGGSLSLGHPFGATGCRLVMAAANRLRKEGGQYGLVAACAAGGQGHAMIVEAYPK
Sequence of long-chain isoform of 3-ketoacyl coenzyme A thiolase (3KCT) (P40939 37-763 partner): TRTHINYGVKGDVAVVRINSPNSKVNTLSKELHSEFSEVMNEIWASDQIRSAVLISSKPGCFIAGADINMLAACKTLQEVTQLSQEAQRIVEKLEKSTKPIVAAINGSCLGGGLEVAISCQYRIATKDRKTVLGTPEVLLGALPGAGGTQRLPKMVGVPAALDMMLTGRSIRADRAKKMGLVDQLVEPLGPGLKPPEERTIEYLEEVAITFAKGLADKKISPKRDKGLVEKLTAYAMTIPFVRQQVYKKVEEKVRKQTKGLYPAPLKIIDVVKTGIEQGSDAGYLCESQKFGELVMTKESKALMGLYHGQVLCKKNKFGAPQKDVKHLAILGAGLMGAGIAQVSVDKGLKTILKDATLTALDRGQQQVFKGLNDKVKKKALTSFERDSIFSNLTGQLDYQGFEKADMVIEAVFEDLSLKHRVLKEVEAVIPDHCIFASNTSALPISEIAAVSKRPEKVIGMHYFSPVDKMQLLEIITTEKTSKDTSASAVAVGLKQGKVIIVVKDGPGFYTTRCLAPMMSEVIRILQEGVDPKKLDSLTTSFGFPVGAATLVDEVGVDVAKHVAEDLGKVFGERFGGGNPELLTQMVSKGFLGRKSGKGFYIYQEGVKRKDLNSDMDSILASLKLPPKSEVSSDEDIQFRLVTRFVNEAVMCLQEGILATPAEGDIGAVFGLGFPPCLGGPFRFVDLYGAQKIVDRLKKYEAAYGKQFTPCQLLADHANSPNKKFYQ

[4] = Examples 1-2, within 72 h (Ex. 1) or 24 h (Ex. 2) of starting 35 mg orally twice daily, patient-reported
[5] = Examples 1-3, within 72 h (Ex. 1) or 24 h (Ex. 2, 3) of starting 35 mg orally twice daily, patient-reported
[6] = Short Term i.e. within 72 hours, trimetazidine MR 35 mg orally twice daily, FMS patient, Example 4
[7] = Short Term i.e. within 72 hours, trimetazidine MR 35 mg orally twice daily, FMS patients, Example 4
[8] = after four (4) months of continuous use, 35 mg orally twice daily
[9] = examination after at least four weeks of trimetazidine MR 35 mg orally twice daily
[10] = examination after four weeks of trimetazidine MR 35 mg orally twice daily

COc1ccc2c3c1O[C@H]1[C@@H](O)C=C[C@H]4[C@@H](C2)N(C)CC[C@@]341 [codeine]
pain relief by prior OTC analgesics [1]: no pain relief whatsoever; also recorded: negligible pain relief
side effects of prior prescription analgesics [1]: frequently accompanied by unpleasant side effects
pain relief by prior prescription analgesics [1]: mild to moderate and very temporary relief

COc1cccc(C2(O)CCCCC2CN(C)C)c1 (centres unmarked) [tramadol]
side effects of prior prescription analgesics [1]: frequently accompanied by unpleasant side effects
pain relief by prior prescription analgesics [1]: mild to moderate and very temporary relief

CCN(CC)CC(=O)Nc1c(C)cccc1C [lidocaine]
localized pain relief by prior trigger point injections ([1]; injections repeated at 2 to 4 week intervals, extremely painful procedures): best localized pain relief

COc1ccc(CN2CCNCC2)c(OC)c1OC [trimetazidine, 1-(2,3,4-trimethyloxybenzyl)piperazine]
time after commencing therapy at which benefits were first noticed ([2]; Example 1, 35 mg orally twice daily): ≤ 24 h
level of irritability ([2]; Example 1, within 72 hours of starting 35 mg orally twice daily, patient-reported): markedly reduced
clarity of thoughts [2, 4]: markedly increased
short and long term memory [2, 4]: improvement
energy levels [2, 5]: very significantly increased
mood [2, 5]: very improved
regularity of bowel habits [2, 5]: markedly improved
sleep patterns [2, 5]: very significantly improved
residual pain after reduction of widespread pain ([2]; Examples 1-3, within 72 h (Ex. 1) or 24 h (Ex. 2, 3) of starting treatment): minimal residual pain reported at the left medial knee; also recorded: minimal residual pain reported at the left hip; also recorded: residual mild headache
sense of well-being ([2]; Medium/Long Term, after five (5) or four (4) weeks of daily use): increased sense of
sustained improvement of all symptoms ([2]; Medium/Long Term, after five (5) weeks of daily use, 35 mg orally twice daily, patient-reported): dramatic 95%
energy levels ([2]; Medium/Long Term, after four (4) weeks of daily use): sustained increase
sustained improvement of symptoms ([2]; Medium/Long Term, after nine (9) weeks of daily use, 35 mg orally twice daily, patient-reported): 90% sustained
sustained improvement of symptoms ([2]; Medium/Long Term, after seven (7) weeks of daily use, 35 mg orally twice daily, patient-reported): dramatic 95%
sustained improvement of symptoms ([2]; Medium/Long Term, after six (6) weeks of daily use, 35 mg orally twice daily, patient-reported): (95%) sustained
Chest Pain [2, 6]: Absence of Chest
Memory [2, 6]: Improved Memory
Nausea [2, 6]: Absence of Nausea
Nausea and Vomiting [2, 6]: Absence of Nausea
nervousness [2, 6]: No Nervousness
reduction in IBS and Acid Reflux Symptoms [2, 6]: 90% reduction in
reduction in irritability [2, 6]: 90% reduction in
reduction in severity of Pre-Menstrual Cramps [2, 6]: 70% reduction in
reduction in symptoms of Irritable Bowel Syndrome [2, 6]: 90% reduction in
symptoms of Irritable Bowel Syndrome [2, 6]: Markedly reduced
alertness and clarity of thinking [2, 7]: Increased alertness
dizziness/dizzy spells [2, 7]: Infrequent dizzy; also recorded: Absence of
energy (feeling) [2, 7]: Energetic feeling
improved mood and concentration [2, 7]: Significantly
improved mood and memory [2, 7]: Significantly
reduction in widespread pain and trigger point pain [2, 7]: 90% reduction in
sleep [2, 7]: Consistent restful
quality of life at follow-up [2, 8]: same marked improvement
relapse of symptoms at follow-up [2, 8]: no relapse
quality of life at follow-up ([2]; after six (6) months of continuous use, 35 mg orally twice daily): same marked improvement
pain at trigger points at follow-up ([2]; after six (6) months of continuous use, in reaction to stress or infections): infrequent episodes of pain
EXAMINATION FINDINGS: affect [2, 9]: markedly improved
EXAMINATION FINDINGS: resolution of trigger point tenderness [2, 9]: Sustained
EXAMINATION FINDINGS: affect and energy levels [2, 10]: markedly improved
EXAMINATION FINDINGS: improvement in physical appearance [2, 10]: obvious marked
EXAMINATION FINDINGS: improved energy levels ([2]; examination after ten weeks of trimetazidine MR 35 mg orally twice daily): Markedly
improvement in all symptoms and signs of fibromyalgia ([2]; within 24 hours of starting treatment, 35 mg orally twice daily): vast improvement
reduction in widespread pain ([2]; within 24 hours of starting treatment, trimetazidine MR 35 mg orally twice daily, FMS patient, patient-reported): 95%
improvement in all symptoms and signs of fibromyalgia ([2]; within 72 hours of starting treatment, 35 mg orally twice daily): vast improvement
reduction in widespread pain ([2]; within 72 hours of starting treatment, trimetazidine MR (Vastarel MR) 35 mg orally twice daily, FMS patient, patient-reported): 90%
reduction in widespread pain ([2]; within 72 hours of starting treatment, trimetazidine MR (Vastarel MR) 35 mg orally twice daily, FMS patient, patient-reported, listed as Trimetazidine): 90% reduction in
effect on long-chain 3-ketoacyl coenzyme A thiolase (3KCT) [3]: inhibits

CC(=O)Nc1ccc(O)cc1 [paracetamol]
pain relief by prior OTC analgesics [1]: no pain relief whatsoever; also recorded: negligible pain relief

CCOC(=O)C1(c2ccccc2)CCN(C)CC1 [meperidine]
side effects of prior prescription analgesics [1]: frequently accompanied by unpleasant side effects
pain relief by prior prescription analgesics [1]: mild to moderate and very temporary relief
